Data reported in ChEMBL document CHEMBL1140656, “Design, synthesis, and evaluation of 3,4-disubstituted pyrazole analogues as anti-tumor CDK inhibitors” (Bioorg Med Chem Lett, 2007).

Columns and labels:
A-375 = assay: Antiproliferative activity against human A375 cells; type: functional, cell-based
Aurora kinase A = biological target: T1, Aurora kinase A (Homo sapiens, UniProt O14965); assay: Inhibition of aurora-A
T1 sequence (O14965 whole entry): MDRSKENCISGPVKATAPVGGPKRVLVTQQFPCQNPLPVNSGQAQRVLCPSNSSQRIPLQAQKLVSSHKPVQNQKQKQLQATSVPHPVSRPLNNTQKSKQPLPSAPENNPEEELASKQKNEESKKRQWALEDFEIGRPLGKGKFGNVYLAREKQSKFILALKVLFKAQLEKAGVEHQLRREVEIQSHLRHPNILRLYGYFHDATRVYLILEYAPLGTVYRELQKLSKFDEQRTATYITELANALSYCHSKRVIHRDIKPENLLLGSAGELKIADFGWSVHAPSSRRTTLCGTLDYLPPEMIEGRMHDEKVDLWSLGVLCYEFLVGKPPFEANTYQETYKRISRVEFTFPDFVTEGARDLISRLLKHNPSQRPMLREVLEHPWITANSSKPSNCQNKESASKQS

[1] = biological target: Vascular endothelial growth factor receptor 2 (Homo sapiens, UniProt P35968); assay: Inhibition of VEGFR2
HeLa = assay: Antiproliferative activity against human HeLa cells; type: functional, cell-based
[2] = biological target: Receptor tyrosine-protein kinase erbB-2 (Homo sapiens, UniProt P04626); assay: Inhibition of HER2
[3] = Inhibition of CDK1/cyclin B; set-up: species or system Homo sapiens
HCT-116 = assay: Antiproliferative activity against human HCT116 cells; type: functional, cell-based

Vascular endothelial growth factor receptor 2, sequence (P35968 whole entry): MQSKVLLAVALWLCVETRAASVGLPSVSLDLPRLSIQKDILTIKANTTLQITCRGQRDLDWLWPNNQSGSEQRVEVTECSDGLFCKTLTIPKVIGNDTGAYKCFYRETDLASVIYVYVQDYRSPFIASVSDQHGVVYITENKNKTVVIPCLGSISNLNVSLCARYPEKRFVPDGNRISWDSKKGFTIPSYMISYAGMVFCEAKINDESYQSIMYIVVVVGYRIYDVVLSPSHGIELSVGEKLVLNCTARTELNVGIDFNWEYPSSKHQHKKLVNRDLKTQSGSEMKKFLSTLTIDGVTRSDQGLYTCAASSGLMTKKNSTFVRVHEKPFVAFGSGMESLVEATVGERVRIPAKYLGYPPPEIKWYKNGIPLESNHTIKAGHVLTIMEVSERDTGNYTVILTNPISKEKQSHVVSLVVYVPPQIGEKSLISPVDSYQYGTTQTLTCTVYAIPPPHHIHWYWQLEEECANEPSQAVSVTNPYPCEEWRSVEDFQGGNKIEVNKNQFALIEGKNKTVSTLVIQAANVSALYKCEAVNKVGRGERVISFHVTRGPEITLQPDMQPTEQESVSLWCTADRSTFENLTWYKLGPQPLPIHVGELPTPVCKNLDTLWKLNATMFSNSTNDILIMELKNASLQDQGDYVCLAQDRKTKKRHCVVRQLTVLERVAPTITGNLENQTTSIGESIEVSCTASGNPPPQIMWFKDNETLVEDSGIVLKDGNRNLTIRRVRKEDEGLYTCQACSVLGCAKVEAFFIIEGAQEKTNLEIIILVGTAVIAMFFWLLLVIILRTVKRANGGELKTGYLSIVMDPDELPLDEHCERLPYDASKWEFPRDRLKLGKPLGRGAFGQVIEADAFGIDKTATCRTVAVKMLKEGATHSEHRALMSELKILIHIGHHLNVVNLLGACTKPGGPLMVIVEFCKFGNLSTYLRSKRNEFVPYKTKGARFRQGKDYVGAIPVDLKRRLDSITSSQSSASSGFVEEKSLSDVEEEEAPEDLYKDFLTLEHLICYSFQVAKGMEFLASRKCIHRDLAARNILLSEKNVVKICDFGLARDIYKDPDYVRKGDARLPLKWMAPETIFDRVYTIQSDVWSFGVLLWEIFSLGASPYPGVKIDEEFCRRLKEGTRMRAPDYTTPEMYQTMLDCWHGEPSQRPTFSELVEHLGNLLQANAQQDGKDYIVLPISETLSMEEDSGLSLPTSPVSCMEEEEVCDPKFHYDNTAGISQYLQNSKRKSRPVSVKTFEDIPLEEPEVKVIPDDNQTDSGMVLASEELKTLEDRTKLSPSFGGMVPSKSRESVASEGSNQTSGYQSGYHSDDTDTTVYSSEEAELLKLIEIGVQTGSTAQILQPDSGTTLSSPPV
Receptor tyrosine-protein kinase erbB-2, sequence (P04626 whole entry): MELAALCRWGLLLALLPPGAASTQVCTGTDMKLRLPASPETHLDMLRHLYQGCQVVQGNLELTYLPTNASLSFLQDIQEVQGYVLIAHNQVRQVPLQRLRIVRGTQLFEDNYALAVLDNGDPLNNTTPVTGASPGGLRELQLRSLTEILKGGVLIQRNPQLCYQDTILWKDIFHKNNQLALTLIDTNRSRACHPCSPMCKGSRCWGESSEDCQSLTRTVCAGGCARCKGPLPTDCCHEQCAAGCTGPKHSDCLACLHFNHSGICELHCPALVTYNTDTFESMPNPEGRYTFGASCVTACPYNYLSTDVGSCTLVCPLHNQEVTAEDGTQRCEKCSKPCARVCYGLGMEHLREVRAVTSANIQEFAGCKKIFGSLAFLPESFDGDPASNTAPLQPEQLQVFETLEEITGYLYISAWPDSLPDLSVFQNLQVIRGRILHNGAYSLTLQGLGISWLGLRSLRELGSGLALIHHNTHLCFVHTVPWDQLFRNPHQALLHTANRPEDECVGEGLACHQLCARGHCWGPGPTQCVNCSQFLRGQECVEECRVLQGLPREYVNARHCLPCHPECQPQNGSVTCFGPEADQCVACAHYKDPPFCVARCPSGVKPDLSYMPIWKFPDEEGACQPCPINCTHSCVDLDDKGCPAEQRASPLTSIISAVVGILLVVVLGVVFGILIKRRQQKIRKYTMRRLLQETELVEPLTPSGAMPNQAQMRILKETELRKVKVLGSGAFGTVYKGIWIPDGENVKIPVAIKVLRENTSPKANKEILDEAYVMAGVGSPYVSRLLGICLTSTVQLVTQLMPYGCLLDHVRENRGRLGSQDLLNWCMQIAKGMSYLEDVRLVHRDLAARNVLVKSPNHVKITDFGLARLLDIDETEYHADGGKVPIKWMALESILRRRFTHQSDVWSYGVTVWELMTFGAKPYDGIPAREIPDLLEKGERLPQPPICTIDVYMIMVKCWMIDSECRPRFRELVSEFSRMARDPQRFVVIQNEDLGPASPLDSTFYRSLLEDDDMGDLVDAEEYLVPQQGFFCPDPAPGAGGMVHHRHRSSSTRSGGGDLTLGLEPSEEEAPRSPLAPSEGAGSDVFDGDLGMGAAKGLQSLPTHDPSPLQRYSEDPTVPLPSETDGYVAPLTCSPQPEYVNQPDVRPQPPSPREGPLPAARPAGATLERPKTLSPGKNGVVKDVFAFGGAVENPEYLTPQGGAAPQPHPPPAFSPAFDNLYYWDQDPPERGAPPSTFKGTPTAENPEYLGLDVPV

SMILES: CCNCc1cncc(/C=C/c2c[nH]nc2-c2nc(C(F)(F)F)c[nH]2)c1
- IC50 (A-375): 7.4 µM
- IC50 (Aurora kinase A): > 10000 nM
- IC50 [1]: 10000 nM
- IC50 (HeLa): 3200 nM
- IC50 [2]: > 100 µM
- IC50 [3]: 18 nM
- IC50 (HCT-116): 1700 nM

SMILES: COc1ccc2nc(-c3n[nH]cc3/C=C/c3cnccc3C)[nH]c2c1
- IC50 (A-375): 4.3 µM
- IC50 (Aurora kinase A): 550 nM
- IC50 [1]: 760 nM
- IC50 (HeLa): 2800 nM
- IC50 [2]: > 10 µM
- IC50 [3]: 160 nM
- IC50 (HCT-116): 3200 nM

SMILES: COc1cncc(/C=C/c2c[nH]nc2-c2nc3ccc(OC)cc3[nH]2)c1
- IC50 (A-375): 0.91 µM
- IC50 (Aurora kinase A): 400 nM
- IC50 [1]: 650 nM
- IC50 (HeLa): 890 nM
- IC50 [3]: 47 nM
- IC50 (HCT-116): 750 nM

SMILES: CCNC(=O)c1cncc(/C=C/c2c[nH]nc2-c2nc3ccc(OC)cc3[nH]2)c1
- IC50 (A-375): 3.6 µM
- IC50 (Aurora kinase A): > 100000 nM
- IC50 [1]: 1350 nM
- IC50 (HeLa): 3700 nM
- IC50 [3]: 110 nM
- IC50 (HCT-116): 2500 nM

SMILES: CCNCc1cncc(/C=C/c2c[nH]nc2-c2nc3ccc(OC)cc3[nH]2)c1
- IC50 (A-375): 0.55 µM
- IC50 (Aurora kinase A): 590 nM
- IC50 [1]: 820 nM
- IC50 (HeLa): 620 nM
- IC50 [3]: 4.6 nM
- IC50 (HCT-116): 190 nM

SMILES: FC(F)(F)c1c[nH]c(-c2n[nH]cc2/C=C/c2cccnc2)n1
- IC50 (A-375): 47 µM
- IC50 (Aurora kinase A): 120 nM
- IC50 [1]: 29000 nM
- IC50 (HeLa): > 10000 nM
- IC50 [2]: > 100 µM
- IC50 [3]: 480 nM
- IC50 (HCT-116): 24000 nM

SMILES: FC(F)(F)c1c[nH]c(-c2n[nH]cc2/C=C/c2cncc3ccccc23)n1
- IC50 (A-375): 5.6 µM
- IC50 (Aurora kinase A): 300 nM
- IC50 [1]: 3060 nM
- IC50 (HeLa): 3600 nM
- IC50 [3]: 110 nM
- IC50 (HCT-116): 2900 nM

SMILES: CN1CCN(c2ccc3nc(-c4n[nH]cc4/C=C/c4cccnc4)[nH]c3c2)CC1
- IC50 (A-375): 0.86 µM
- IC50 (Aurora kinase A): > 10000 nM
- IC50 [1]: 290 nM
- IC50 (HeLa): 460 nM
- IC50 [3]: 29 nM
- IC50 (HCT-116): 190 nM

SMILES: N#Cc1c[nH]c(-c2n[nH]cc2/C=C/c2cccnc2)n1
- IC50 (A-375): > 10 µM
- IC50 (Aurora kinase A): > 10000 nM
- IC50 [1]: > 10000 nM
- IC50 (HeLa): > 10000 nM
- IC50 [2]: > 100 µM
- IC50 [3]: 700 nM
- IC50 (HCT-116): 70700 nM

SMILES: COc1ccc2nc(-c3n[nH]cc3/C=C/c3cncc4ccccc34)[nH]c2c1
- IC50 (A-375): 3 µM
- IC50 (Aurora kinase A): 530 nM
- IC50 [1]: 610 nM
- IC50 (HeLa): 2800 nM
- IC50 [2]: > 100 µM
- IC50 [3]: 150 nM
- IC50 (HCT-116): 2700 nM

SMILES: COc1ccc2nc(-c3n[nH]cc3/C=C/c3cncc(C#N)c3)[nH]c2c1
- IC50 (Aurora kinase A): 4200 nM
- IC50 [1]: 1700 nM
- IC50 [2]: > 100 µM
- IC50 [3]: > 1000 nM

SMILES: COC(=O)c1cncc(/C=C/c2c[nH]nc2-c2nc3ccc(OC)cc3[nH]2)c1
- IC50 (A-375): 3.1 µM
- IC50 (Aurora kinase A): > 100000 nM
- IC50 [1]: 1280 nM
- IC50 (HeLa): 4400 nM
- IC50 [2]: > 100 µM
- IC50 [3]: 890 nM
- IC50 (HCT-116): 3100 nM

SMILES: COc1ccc2nc(-c3n[nH]cc3/C=C/c3cccnc3)[nH]c2c1
- IC50 (A-375): 2.5 µM
- IC50 (Aurora kinase A): 510 nM
- IC50 [1]: 970 nM
- IC50 (HeLa): 1800 nM
- IC50 [2]: > 10 µM
- IC50 [3]: 33 nM
- IC50 (HCT-116): 2200 nM
